Test results published in patent publication US12077503B2, “Substituted cyclic amides and their use as herbicides” (FMC CORPORATION, priority 2015, dated 2024).

How the values were obtained:
Assay type in all cases: in vivo
[1] = test system: barnyardgrass (Echinochloa crus-galli); experiment: Test G Pre-Emergence Protocol; settings: Echinochloa crus-galli, pre-emergence, 312 h, evaluated after 13 days; for pest or weed control at 15.625 g/ha: 15.625 g ai/ha; for pest or weed control at 15.625 g/ha / pest or weed control at 250 g/ha: read-out: Barnyardgrass damage rating (100=total damage to plant; 0=no damage to plant); for pest or weed control at 62.5 g/ha: 62.5 g ai/ha, 100=total damage to plant, 0=no damage to plant, read-out: Barnyardgrass damage rating; for pest or weed control at 250 g/ha: 250 g ai/ha
Procedure, shortened: (§1)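 Test compound in 0.5% Tween 20 acetone/water (50:50) was applied at three rates (15.625, 62.5, 250 g/ha) to soil sown one day earlier. After 13 days plants were scored for injury, where 0 means unaffected and 100 means completely damaged.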

corn (Zea mays) [2] = experiment: Test G Pre-Emergence Protocol; settings: Zea mays, pre-emergence, 312 h, evaluated after 13 days; for plant injury at 15.625 g/ha: 15.625 g ai/ha; for plant injury at 15.625 g/ha / plant injury at 250 g/ha: read-out: Corn damage rating (100=total damage to plant; 0=no damage to plant); for plant injury at 62.5 g/ha: 62.5 g ai/ha, 100=total damage to plant, 0=no damage to plant, read-out: Corn damage rating; for plant injury at 250 g/ha: 250 g ai/ha
Procedure, shortened: as §1

[3] = test system: giant foxtail (Setaria faberi); experiment: Test G Pre-Emergence Protocol; settings: Setaria faberi, pre-emergence, 312 h, evaluated after 13 days; for pest or weed control at 15.625 g/ha: 15.625 g ai/ha; for pest or weed control at 15.625 g/ha / pest or weed control at 250 g/ha: read-out: Foxtail, Giant damage rating (100=total damage to plant; 0=no damage to plant); for pest or weed control at 62.5 g/ha: 62.5 g ai/ha, 100=total damage to plant, 0=no damage to plant, read-out: Foxtail, Giant damage rating; for pest or weed control at 250 g/ha: 250 g ai/ha
Procedure, shortened: as §1

[4] = test system: ivy-leaved morning glory (Ipomoea hederacea); experiment: Test G Pre-Emergence Protocol; settings: Ipomoea, pre-emergence, 312 h, evaluated after 13 days; for pest or weed control at 15.625 g/ha: 15.625 g ai/ha; for pest or weed control at 15.625 g/ha / pest or weed control at 250 g/ha: read-out: Morningglory, Ivy-leaved damage rating (100=total damage to plant; 0=no damage to plant); for pest or weed control at 62.5 g/ha: 62.5 g ai/ha, 100=total damage to plant, 0=no damage to plant, read-out: Morningglory, Ivy-leaved damage rating; for pest or weed control at 250 g/ha: 250 g ai/ha
Procedure, shortened: as §1

[5] = test system: redroot pigweed (Amaranthus retroflexus); experiment: Test G Pre-Emergence Protocol; settings: Amaranthus retroflexus, pre-emergence, 312 h, evaluated after 13 days; for pest or weed control at 15.625 g/ha: 15.625 g ai/ha; for pest or weed control at 15.625 g/ha / pest or weed control at 250 g/ha: read-out: Pigweed, Redroot damage rating (100=total damage to plant; 0=no damage to plant); for pest or weed control at 62.5 g/ha: 62.5 g ai/ha, 100=total damage to plant, 0=no damage to plant, read-out: Pigweed, Redroot damage rating; for pest or weed control at 250 g/ha: 250 g ai/ha
Procedure, shortened: as §1

[6] = test system: velvetleaf (Abutilon theophrasti); experiment: Test G Pre-Emergence Protocol; settings: Abutilon theophrasti, pre-emergence, 312 h, evaluated after 13 days; for pest or weed control at 15.625 g/ha: 15.625 g ai/ha; for pest or weed control at 15.625 g/ha / pest or weed control at 250 g/ha: read-out: Velvetleaf damage rating (100=total damage to plant; 0=no damage to plant); for pest or weed control at 62.5 g/ha: 62.5 g ai/ha, 100=total damage to plant, 0=no damage to plant, read-out: Velvetleaf damage rating; for pest or weed control at 250 g/ha: 250 g ai/ha
Procedure, shortened: as §1

[7] = test system: barnyardgrass (Echinochloa crus-galli); experiment: Test G Post-Emergence Protocol; settings: Echinochloa crus-galli, post-emergence, 312 h, read-out: Barnyardgrass damage rating; for pest or weed control at 15.625 g/ha: 15.625 g ai/ha, evaluated after 13 days (100=total damage to plant; 0=no damage to plant); for pest or weed control at 62.5 g/ha: 62.5 g ai/ha; for pest or weed control at 62.5 g/ha / pest or weed control at 250 g/ha: evaluated after 13 days, 100=total damage to plant, 0=no damage to plant; for pest or weed control at 250 g/ha: 250 g ai/ha
Procedure, shortened: (§2)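 Sow in soil; grow 8 d (24/16 °C, 14 h light, 65% humidity); spray 15.625/62.5/250 g/ha in acetone:water 50:50 + 0.5% Tween 20; grow on, water twice daily; score damage 0–100 at 13 d.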

corn (Zea mays) [8] = experiment: Test G Post-Emergence Protocol; settings: Zea mays, post-emergence, 312 h, read-out: Corn damage rating; for plant injury at 15.625 g/ha: 15.625 g ai/ha, evaluated after 13 days (100=total damage to plant; 0=no damage to plant); for plant injury at 62.5 g/ha: 62.5 g ai/ha; for plant injury at 62.5 g/ha / plant injury at 250 g/ha: evaluated after 13 days, 100=total damage to plant, 0=no damage to plant; for plant injury at 250 g/ha: 250 g ai/ha
Procedure, shortened: as §2

[9] = test system: giant foxtail (Setaria faberi); experiment: Test G Post-Emergence Protocol; settings: Setaria faberi, post-emergence, 312 h, read-out: Foxtail, Giant damage rating; for pest or weed control at 15.625 g/ha: 15.625 g ai/ha, evaluated after 13 days (100=total damage to plant; 0=no damage to plant); for pest or weed control at 62.5 g/ha: 62.5 g ai/ha; for pest or weed control at 62.5 g/ha / pest or weed control at 250 g/ha: evaluated after 13 days, 100=total damage to plant, 0=no damage to plant; for pest or weed control at 250 g/ha: 250 g ai/ha
Procedure, shortened: as §2

[10] = test system: ivy-leaved morning glory (Ipomoea hederacea); experiment: Test G Post-Emergence Protocol; settings: Ipomoea, post-emergence, 312 h, read-out: Morningglory, Ivy-leaved damage rating; for pest or weed control at 15.625 g/ha: 15.625 g ai/ha, evaluated after 13 days (100=total damage to plant; 0=no damage to plant); for pest or weed control at 62.5 g/ha: 62.5 g ai/ha; for pest or weed control at 62.5 g/ha / pest or weed control at 250 g/ha: evaluated after 13 days, 100=total damage to plant, 0=no damage to plant; for pest or weed control at 250 g/ha: 250 g ai/ha
Procedure, shortened: as §2

[11] = test system: redroot pigweed (Amaranthus retroflexus); experiment: Test G Post-Emergence Protocol; settings: Amaranthus retroflexus, post-emergence, 312 h, read-out: Pigweed, Redroot damage rating; for pest or weed control at 15.625 g/ha: 15.625 g ai/ha, evaluated after 13 days (100=total damage to plant; 0=no damage to plant); for pest or weed control at 62.5 g/ha: 62.5 g ai/ha; for pest or weed control at 62.5 g/ha / pest or weed control at 250 g/ha: evaluated after 13 days, 100=total damage to plant, 0=no damage to plant; for pest or weed control at 250 g/ha: 250 g ai/ha
Procedure, shortened: as §2

[12] = test system: velvetleaf (Abutilon theophrasti); experiment: Test G Post-Emergence Protocol; settings: Abutilon theophrasti, post-emergence, 312 h, read-out: Velvetleaf damage rating; for pest or weed control at 15.625 g/ha: 15.625 g ai/ha, evaluated after 13 days (100=total damage to plant; 0=no damage to plant); for pest or weed control at 62.5 g/ha: 62.5 g ai/ha; for pest or weed control at 62.5 g/ha / pest or weed control at 250 g/ha: evaluated after 13 days, 100=total damage to plant, 0=no damage to plant; for pest or weed control at 250 g/ha: 250 g ai/ha
Procedure, shortened: as §2

Compound	pest or weed control at 15.625 g/ha [1]	pest or weed control at 62.5 g/ha [1]	pest or weed control at 250 g/ha [1]	plant injury at 15.625 g/ha (corn (Zea mays) [2])	plant injury at 62.5 g/ha (corn (Zea mays) [2])	plant injury at 250 g/ha (corn (Zea mays) [2])	pest or weed control at 15.625 g/ha [3]	pest or weed control at 62.5 g/ha [3]	pest or weed control at 250 g/ha [3]	pest or weed control at 15.625 g/ha [4]	pest or weed control at 62.5 g/ha [4]	pest or weed control at 250 g/ha [4]	pest or weed control at 15.625 g/ha [5]	pest or weed control at 62.5 g/ha [5]	pest or weed control at 250 g/ha [5]	pest or weed control at 15.625 g/ha [6]	pest or weed control at 62.5 g/ha [6]	pest or weed control at 250 g/ha [6]	pest or weed control at 15.625 g/ha [7]	pest or weed control at 62.5 g/ha [7]	further results
Cc1c(F)cccc1NC(=O)[C@@H]1C(=O)N(C)C[C@H]1c1cccc(OCC(F)(F)F)c1 (racemic) [Compound 1764]	40%	70%	80%	0%	20%	70%	60%	70%	80%	0%	0%	20%	0%	10%	30%	0%	10%	30%	40%	50%	pest or weed control at 250 g/ha [7]: 80%; plant injury at 15.625 g/ha (corn (Zea mays) [8]): 10%; plant injury at 62.5 g/ha (corn (Zea mays) [8]): 10%; plant injury at 250 g/ha (corn (Zea mays) [8]): 70%; pest or weed control at 15.625 g/ha [9]: 70%; pest or weed control at 62.5 g/ha [9]: 80%; pest or weed control at 250 g/ha [9]: 80%; pest or weed control at 15.625 g/ha [10]: 10%; pest or weed control at 62.5 g/ha [10]: 30%; pest or weed control at 250 g/ha [10]: 70%; pest or weed control at 15.625 g/ha [11]: 0%; pest or weed control at 62.5 g/ha [11]: 10%; pest or weed control at 250 g/ha [11]: 30%; pest or weed control at 15.625 g/ha [12]: 20%; pest or weed control at 62.5 g/ha [12]: 40%; pest or weed control at 250 g/ha [12]: 60%
CN1C[C@H](c2ccc(C#N)c(C(F)(F)F)c2)[C@@H](C(=O)Nc2ccccc2S(C)(=O)=O)C1=O (racemic) [Compound 1796]	0%	0%	0%	0%	0%	0%	0%	0%	0%	0%	0%	0%	0%	0%	20%	0%	0%	10%	0%	0%	pest or weed control at 250 g/ha [7]: 0%; plant injury at 15.625 g/ha (corn (Zea mays) [8]): 0%; plant injury at 62.5 g/ha (corn (Zea mays) [8]): 0%; plant injury at 250 g/ha (corn (Zea mays) [8]): 0%; pest or weed control at 15.625 g/ha [9]: 0%; pest or weed control at 62.5 g/ha [9]: 0%; pest or weed control at 250 g/ha [9]: 0%; pest or weed control at 15.625 g/ha [10]: 0%; pest or weed control at 62.5 g/ha [10]: 10%; pest or weed control at 250 g/ha [10]: 10%; pest or weed control at 15.625 g/ha [11]: 0%; pest or weed control at 62.5 g/ha [11]: 10%; pest or weed control at 250 g/ha [11]: 20%; pest or weed control at 15.625 g/ha [12]: 0%; pest or weed control at 62.5 g/ha [12]: 0%; pest or weed control at 250 g/ha [12]: 0%
